Source: patent publication US7763656B2, “Use of Acetylamino benzoic acid compounds for nonsense suppression and the treatment of disease” (PTC Therapeutics, Inc., priority 2002, dated 2010)
Several values for one entry are separate records, joined by “and”; a condition that tells them apart may be missing. Equal entries are not always repeated.

melting point | Structure (SMILES)
201 to 202 °C | Cc1ccc(OCC(=O)Nc2cccc(C(=O)O)c2)cc1C [Compound 1, 3-[2-(3,4-dimethyl-phenoxy)-acetylamino]-benzoic acid]
178 to 179 °C | CC(C)c1ccccc1SCC(=O)Nc1cccc(C(=O)O)c1 [Compound 3, 3-[2-(2-isopropyl-phenylsulfanyl)-acetylamino]-benzoic acid]
166 to 167 °C | CC(C)c1cccc(OCC(=O)Nc2cccc(C(=O)O)c2)c1 [Compound 6, 3-[2-(3-isopropyl-phenoxy)-acetylamino]-benzoic acid]
171 to 174 °C | CC(C)c1ccc(OCC(=O)Nc2cccc(C(=O)O)c2)cc1 [Compound 7, 3-[2-(4-isopropyl-phenoxy)-acetylamino]-benzoic acid]
219 to 221 °C | O=C(COc1ccc(Cl)c(Cl)c1)Nc1cccc(C(=O)O)c1 [Compound 12, 3-[2-(3,4-dichlorophenoxy)-acetylamino]-benzoic acid]
185 to 186 °C | CCCc1ccc(OCC(=O)Nc2cccc(C(=O)O)c2)cc1 [Compound 16, 3-[2-(4-propyl-phenoxy)-acetylamino]-benzoic acid]
209 to 211 °C | CCc1ccc(OCC(=O)Nc2cccc(C(=O)O)c2)cc1 [Compound 18, 3-[2-(4-ethyl-phenoxy)-acetylamino]-benzoic acid]
203 to 204 °C | O=C(COc1ccc2c(c1)CCC2)Nc1cccc(C(=O)O)c1 [Compound 19, 3-[2-(indan-5-yloxy)-acetylamino]-benzoic acid]
199 to 201 °C | O=C(COc1ccc2c(c1)CCCC2)Nc1cccc(C(=O)O)c1 [Compound 20, 3-[2-(5,6,7,8-tetrahydro-naphthalen-2-yloxy)-acetylamino]-benzoic acid]
207 to 208 °C | CC(C)(c1ccccc1)c1ccc(OCC(=O)Nc2cccc(C(=O)O)c2)cc1 [Compound 22, 3-{2-[4-(1-methyl-1-phenyl-ethyl)-phenoxy]-acetylamino}-benzoic acid]
191 to 192 °C | CCOc1ccc(OCC(=O)Nc2cccc(C(=O)O)c2)cc1 [Compound 27, 3-[2-(4-ethoxy-phenoxy)-acetylamino]-benzoic acid]
262 to 263 °C | CC(C)c1ccc(C(=O)CC(=O)Nc2cccc(C(=O)O)c2)cc1 [Compound 29, 3-[3-(4-isopropyl-phenyl)-3-oxo-propionylamino]-benzoic acid]
161 to 162 °C | Cc1cc(OCC(=O)Nc2cccc(C(=O)O)c2Cl)ccc1C(C)C [Compound 30, 2-chloro-3-[2-(4-isopropyl-3-methyl-phenoxy)-acetylamino]-benzoic acid]
210 to 211 °C | CC(C)c1ccc(OC2CCN(c3cccc(C(=O)O)c3)C2=O)cc1 (stereo not drawn) [Compound 33, 3-[3-(4-Isopropyl-phenoxy)-2-oxo-pyrrolidin-1-yl]-benzoic acid]
164 to 165 °C | CC(C)c1ccc(OC2CCN(c3cccc(C(=O)[O-])c3)C2=O)cc1.[Na+] (stereo not drawn) [Compound 34, 3-[3-(4-Isopropyl-phenoxy)-2-oxo-pyrrolidin-1-yl]-benzoic acid Sodium Salt]
175 to 178 °C | O=C(O)c1cccc(N2CCC(Oc3ccc(Oc4ccc(C(F)(F)F)cc4)cc3)C2=O)c1 (stereo not drawn) [Compound 37, 3{2-Oxo-3-[4-(4-trifluoromethyl-phenoxy)-phenoxy]-pyrrolidin-1-yl}-benzoic acid]
150 to 152 °C | CCc1cccc(OC2CCN(c3cccc(C(=O)O)c3)C2=O)c1 (stereo not drawn) [Compound 38]
185 to 187 °C | O=C(O)c1cccc(N2CCC(Oc3ccc(Oc4ccccc4)cc3)C2=O)c1 (stereo not drawn) [Compound 39, 3-[2-Oxo-3-(4-phenoxy-phenoxy)-pyrrolidin-1-yl]-benzoic acid]
186 to 187 °C | Cc1cc(OC(C)C(=O)Nc2cccc(C(=O)O)c2)ccc1C(C)C (stereo not drawn) [Compound 47, 3-[2-(4-Isopropyl-3-methyl-phenoxy)-propionylamino]-benzoic acid]
260 to 261 °C | O=C(COc1ccc(C(=O)O)cc1)Nc1cccc(C(=O)O)c1 [Compound 50, 3-[2-(4-Carboxy-phenoxy)-acetylamino]-benzoic acid]
223 to 224 °C | O=C(COc1ccc2ccccc2c1)Nc1cccc(C(=O)O)c1 [Compound 52, 3-[2-(Naphthalen-2-yloxy)-acetylamino]-benzoic acid]
191 to 194 °C | O=C(COc1ccc2c(c1)OCO2)Nc1cccc(C(=O)O)c1 [Compound 53, 3-[2-(Benzo[1,3]dioxol-5-yloxy)-acetylamino]-benzoic acid]
242 to 244 °C | O=C(COc1ccc(Cl)c(F)c1)Nc1cccc(C(=O)O)c1 [Compound 54, 3-[2-(4-Chloro-3-fluoro-phenoxy)-acetylamino]-benzoic acid]
174 to 175 °C | Cc1cc(OCC(=O)Nc2ccc(Cl)c(C(=O)O)c2)ccc1C(C)C [Compound 57, 2-Chloro-5-[2-(4-isopropyl-3-methyl-phenoxy)-acetylamino]-benzoic acid]

The next lines start with the compound.

Structure (SMILES) | melting point
Cc1cc(OCC(=O)Nc2cccc(C(=O)O)c2)ccc1C(C)C [Compound 4, 3-[2-(4-isopropyl-3-methyl-phenoxy)-acetylamino]-benzoic acid] | 191 to 192 °C and 188 to 189 °C
Cc1cc(OCC(=O)Nc2cccc(C(=O)O)c2)cc(C(C)C)c1 [Compound 5, 3-[2-(3-isopropyl-5-methyl-phenoxy)-acetylamino]-benzoic acid] | 183 to 184 °C
Cc1cc(OCC(=S)Nc2cccc(C(=O)O)c2)ccc1C(C)C [Compound 8, 3-[2-(4-isopropyl-3-methyl-phenoxy)-thioacetylamino]-benzoic acid] | 174 to 176 °C and 174 to 175 °C
Cc1ccccc1-c1ccc(OCC(=O)Nc2cccc(C(=O)O)c2)cc1 [Compound 9, 3-[2-(2’-methyl-biphen-4-yloxy)-acetylamino]-benzoic acid] | 220 to 221 °C
Cc1cccc(-c2ccc(OCC(=O)Nc3cccc(C(=O)O)c3)cc2)c1 [Compound 10, 3-[2-(3’-methyl-biphen-4-yloxy)-acetylamino]-benzoic acid] | 225 to 226 °C
O=C(COc1ccc(-c2ccccc2)cc1)Nc1cccc(C(=O)O)c1 [Compound 13, 3-[2-(biphen-4-yloxy)-acetylamino]-benzoic acid] | 245 to 246 °C
CCC(C)(C)c1ccc(OCC(=O)Nc2cccc(C(=O)O)c2)cc1 [Compound 15, 3-{2-[4-(1,1-dimethyl-propyl)-phenoxy]acetylamino)-benzoic acid] | 164 to 165 °C
O=C(COc1ccc(C2CCCC2)cc1)Nc1cccc(C(=O)O)c1 [Compound 24, 3-[2-(4-cyclopentyl-phenoxy)-acetylamino]-benzoic acid] | 212 to 213 °C
Cc1cc(OCC(=O)Nc2cccc(C(=O)O)c2)ccc1Cl [Compound 25, 3-[2-(4-chloro-3-methyl-phenoxy)-acetylamino]-benzoic acid] | 197 to 198 °C
O=C(COc1ccc(C#Cc2ccccc2)cc1)Nc1cccc(C(=O)O)c1 [Compound 28, 3-[2-(4-phenylethynyl-phenoxy)-acetylamino]-benzoic acid] | 242 to 244 °C
Cc1cc(OCC(=O)Nc2cc(C(=O)O)ccc2Cl)ccc1C(C)C [Compound 31, 4-chloro-3-[2-(4-isopropyl-3-methyl-phenoxy)-acetylamino]-benzoic acid] | 218 to 220 °C
O=C(COc1ccc(C(=O)c2ccccc2)cc1)Nc1cccc(C(=O)O)c1 [Compound 32, 3-[2-(4-benzoyl-phenoxy)-acetylamino]-benzoic acid] | 208 to 210 °C
O=C(O)c1cccc(N2CCC(Oc3ccc4c(c3)CCC4)C2=O)c1 (stereo not drawn) [Compound 35, 3-[3-(Indan-5-yloxy)-2-oxo-pyrrolidin-1-yl]-benzoic acid] | 182 to 184 °C
O=C(O)c1cccc(N2CCC(Oc3ccc4c(c3)OCO4)C2=O)c1 (stereo not drawn) [Compound 36, 3-[3-(Benzo[1,3]dioxol-5-yloxy)-2-oxo-pyrrolidin-1-yl]-benzoic acid] | 194 to 197 °C
Cc1ccc(C(C)C)c(OCC(=O)Nc2cccc(C(=O)O)c2)c1 [Compound 40, 3-[2-(2-Isopropyl-5-methyl-phenoxy)-acetylamino]-benzoic acid] | 211 to 213 °C
Cc1ccc(C(C)C)c(OC(C)C(=O)Nc2cccc(C(=O)O)c2)c1 (stereo not drawn) [Compound 41, 3-[2-(2-Isopropyl-5-methyl-phenoxy)-propionylamino]-benzoic acid] | 161 to 163 °C
Cc1cccc(OCC(=O)Nc2cccc(C(=O)O)c2)c1 [Compound 42, 3-[2-(5-Methyl-phenoxy)-acetylamino]-benzoic acid] | 200 to 201 °C
CC(C)c1ccccc1OCC(=O)Nc1cccc(C(=O)O)c1 [Compound 43, 3-[2-(2-Isopropyl-phenoxy)-acetylamino]-benzoic acid] | 168 to 170 °C
COc1ccc(C(=O)O)cc1NC(=O)COc1cc(C)ccc1C(C)C [Compound 44, 3-[2-(2-Isopropyl-5-methyl-phenoxy)-acetylamino]-4-methoxy-benzoic acid] | 253 to 255 °C
Cc1ccc(C(C)C)cc1OCC(=O)Nc1cccc(C(=O)O)c1 [Compound 45, 3-[2-(5-Isopropyl-2-methyl-phenoxy)-acetylamino]-benzoic acid] | 211 to 213 °C
Cc1ccc(C(=O)O)cc1NC(=O)COc1ccc(C(C)C)c(C)c1 [Compound 48, 3-{2-(4-Isopropyl-3-methyl-phenoxy)-acetylamino]-4-methyl-benzoic acid] | 188 to 189 °C
O=C(COc1ccc(CO)cc1)Nc1cccc(C(=O)O)c1 [Compound 55, 3-[2-(4-Hydroxymethyl-phenoxy)-acetylamino]-benzoic acid] | 209 to 212 °C
Cc1cc(OCC(=O)Nc2ccc(O)c(C(=O)O)c2)ccc1C(C)C [Compound 56, 2-Hydroxy-5-[2-(4-isopropyl-3-methyl-phenoxy)-acetylamino] benzoic acid] | 101 to 103 °C
Cc1cc(OCC(=O)Nc2cc(F)c(F)c(C(=O)O)c2F)ccc1C(C)C [Compound 58, 2,3,6-Trifluoro-5-[2-(4-isopropyl-3-methyl-phenoxy)-acetylamino]-benzoic acid] | 200 to 208 °C
